Values after ≈ are worked out from the molar mass of the structure shown. Values joined by “and” are separate entries in the source; they are usually repeats but may differ in a detail not shown here. Equal entries are not always repeated.
Tests used:
[1] = system: E. coli 82 TR(pl 81), transformant carrying blaKPC-3; assay: whole cell assay, meropenem MIC with tested agent; format: cell-based, Escherichia coli
Experimental: (§1) To examine the ability of tested agents to inhibit various carbapenemases and AmpC-enzymes, their synergy with antibiotics against β-lactamase-producing strains was assessed by checkerboard microdilution assay, with slight modification. Checkerboards were prepared in microtiter plates, with seven two-fold dilutions of β-lactams (1–64 mg/L) in the rows and three two-fold dilutions of tested agents and PBA (4–16 mg/L) in the columns. Tested agents’ concentrations were limited to the concentrations at which the newest commercially available BLIs (vaborbactam, relebactam, and avibactam) are used in susceptibility testing. Plates were inoculated and incubated as in the MIC microdilution assay. Parallel, MICs of tested agents and PBA alone were determined by the microdilution assay. Following the incubation, antibiotic MICs in the presence of each agent’s concentration were determined. Moreover, for the first well without growth found in each checkerboard row and column along the growth/non-growth interface, the fractional inhibitory concentration index (FICI) was calculated using the formula below:FICI = [(MIC of antibiotic in combination)/(MIC of antibiotic alone)] + [(MIC of the tested agent in combination)/(MIC of tested agent alone)].

E. coli DH5α = assay: whole cell assay, meropenem MIC with tested agent; format: cell-based, Escherichia coli
Experimental: as §1

[2] = biological target: KPC-3 in purified protein extract from E. coli 82 TR(pl 81) (Klebsiella pneumoniae, UniProt Q9F663, H272Y); assay: nitrocefin hydrolysis test; format: biochemical; conditions: single repetitions
Experimental: Overnight culture of E. coli 82 TR(pl 81) in MHB was diluted 1:100 into fresh MHB and incubated with shaking at 37 °C until an OD600 of 1 was attained. […] Further incubation was performed under the same conditions until an OD600 of 3 was reached. The culture with the required OD600 was centrifuged (6700× g, 10 min) and the supernatant was discarded. From the obtained bacterial cell pellet total proteins were extracted with the ReadyPreps™ Protein Preparation Kit (Epicentre Biotechnologies, Madison, WI, USA) and used in the subsequent nitrocefin hydrolysis test, performed in a 96-well microplate. Nitrocefin is a chromogenic cephalosporin substrate routinely used to detect the presence of β-lactamases. First, 20 μL of the protein extract was mixed with 80 μL of tested agents (1a, 2a, 3a and PBA as a reference BLI, each examined at concentrations: 4, 8 and 16 mg/L) or with 80 μL of the phosphate buffer (positive control—corresponding to KPC enzyme activity in the purified total proteins extracted from E. coli 82 TR(pl 81) cells). After 10 min of incubation at the room temperature 100 μL of the nitrocefin (Oxoid, Basingstoke, Hampshire, England) was added to reach its final concentration of 150 μM. β-lactamases hydrolyze the β-lactam ring of nitrocefin, causing its degradation and color change. Nitrocefin hydrolysis was evaluated after 3 min of the incubation at room temperature.
As in our previous publication the presence of β-lactamases in the purified protein extract with and without tested agents was assessed by the spectrophotometric measurement of the rates of nitrocefin hydrolysis as relative absorbance at 486 nm. The level of the measured absorbance indicated β-lactamase activity. Finally, the difference in the relative absorbance between the positive control and the sample concentration of the tested inhibitors was calculated and expressed as a percentage. A reduction in the relative absorbance level in the presence of a tested agent was taken as an indicator of the BLI activity of a used aromatic diboronic acid. The experiment was performed in triplicate.

KPC producers = assay: microdilution with carbapenems; format: cell-based
Experimental: as §1
(§2) For calculations, all off-scale MICs were converted to the next-highest doubling concentration. Subsequently, both the average and the lowest FICI were interpreted. The interpretation was as follows: FICI ≤ 0.5, synergy; 0.5 < FICI ≤ 4, indifference and FICI > 4, antagonism. Primarily, examined combinations consisted of meropenem (Pol-Aura, Morag, Poland) plus tested agents against carbapenemases-producing strains and ceftazidime (Pol-Aura, Morag, Poland) plus tested agents against AmpC-producing strains. For agents that reduced meropenem MIC at least 4-fold for at least two tested strains, similar assays were performed with imipenem (Pol-Aura, Morag, Poland) and ertapenem (Pol-Aura, Morag, Poland).

AmpC producers = assay: microdilution with ceftazidime; format: cell-based
Experimental: as §1, §2

Gram-positive strains = assay: direct antimicrobial activity, MIC; format: cell-based
Experimental: (§3) Direct antimicrobial activity against Gram-negative and Gram-positive bacterial strains, as well as against yeast, was examined as previously described by the disc-diffusion test, the MIC determination assay, the MBC (for bacteria), and the MFC (for yeasts) determination tests. All the above-mentioned tests were performed according to EUCAST [71, 72] and CLSI [73, 74, 75, 76, 77] recommendations. The following reference agents were used: nitrofurantoin (for Gram-negative rods), linezolid (for Gram-positive bacteria), and fluconazole (in the case of fungi). The new aromatic diboronic acids were dissolved in DMSO (Sigma, St. Louis, MO, USA). In the disc-diffusion test, the concentration of new agents was 0.4 mg per disc. Depending on the solubility, the MIC and MBC/MFC values were determined up to 100 mg/L for 1k, up to 200 mg/L for 7c, and up to 400 mg/L for the remaining compounds: 1a–1j, 2a–2g, 3a–3f, 4a–4b, 5a–5c, 6a and 7a–7b.

yeasts = assay: antifungal activity, MIC/MFC; format: cell-based; conditions: for MFC: yeasts against which fungicidal activity was noticed
Experimental: as §3

Gram-negative rods = assay: MIC in the presence of efflux pump inhibitor PAβN; format: cell-based; conditions: PAβN 20 mg/L
Experimental: To investigate the contribution of the MDR efflux pumps to the resistance of Gram-negative rods to the newly synthesized compounds, the MIC values of studied agents, with or without the pump inhibitor, PAβN (20 mg/L) (Sigma, St. Louis, MO, USA), were evaluated. The MIC determination was performed in Mueller–Hinton II broth medium (MHB) (Becton, Dickinson and Company, Franklin Lakes, NJ, USA) using 2-fold serial dilutions of tested agents, according to the CLSI guidelines. To minimize the influence of PAβN on the destabilization of bacterial cell covers, the tests were conducted in the presence of 1 mM MgSO4 (Sigma, St. Louis, MO, USA). At least a 4-fold reduction in the MIC value after the addition of PAβN was considered significant.

Sequence of KPC-3 in purified protein extract from E. coli 82 TR(pl 81) (Q9F663 25-293 H272Y): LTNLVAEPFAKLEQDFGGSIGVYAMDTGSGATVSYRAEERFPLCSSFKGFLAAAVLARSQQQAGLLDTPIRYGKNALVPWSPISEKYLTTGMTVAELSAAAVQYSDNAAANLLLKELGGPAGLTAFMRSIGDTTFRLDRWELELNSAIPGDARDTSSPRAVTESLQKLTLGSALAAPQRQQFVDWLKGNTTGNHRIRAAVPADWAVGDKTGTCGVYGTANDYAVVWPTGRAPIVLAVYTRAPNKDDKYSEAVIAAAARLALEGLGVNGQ

## OB(O)c1ccccc1B(O)O [3a, phenylene-1,2-diboronic acid]
[1]; agent 4 mg/L
  MIC of meropenem in combination with agent: 0.50 µg/mL
  meropenem MIC reduction: 4 fold
[1]; agent 8 mg/L
  MIC of meropenem in combination with agent: 0.125 µg/mL
  meropenem MIC reduction: 16 fold
[1]; agent 16 mg/L
  MIC of meropenem in combination with agent: 0.062 µg/mL
  meropenem MIC reduction: 32 fold
E. coli DH5α; Escherichia coli, read-out: MIC of agent alone
  MIC: 400 µg/mL
E. coli DH5α; agent 16 mg/L
  MIC of meropenem in combination with agent: 0.016 µg/mL
[2]; agent 4 mg/L
  Relative absorbance (nitrocefin hydrolysis, 486 nm): 1.451 and 1.436 and 1.174
[2]; agent 8 mg/L
  Relative absorbance (nitrocefin hydrolysis, 486 nm): 1.305 and 1.279 and 1.249
[2]; agent 16 mg/L
  Relative absorbance (nitrocefin hydrolysis, 486 nm): 1.090 and 1.114 and 1.077
KPC producers; agent 4 mg/L
  carbapenems' MIC reduction, up to: ≤ 8 fold
KPC producers; agent 8 mg/L
  carbapenems' MIC reduction, up to: up to 16 fold
KPC producers; agent 16 mg/L
  carbapenems' MIC reduction, up to: up to 64 fold
KPC producers; checkerboard assays
  fractional inhibitory concentrations indices with carbapenems: 0.1–0.32
AmpC producers; agent 4 mg/L
  ceftazidime MIC reduction, up to: ≤ 2 fold
AmpC producers; agent 8 mg/L
  ceftazidime MIC reduction, up to: up to 4 fold
AmpC producers; agent 16 mg/L
  ceftazidime MIC reduction, up to: ≤ 8 fold

## OB(O)c1ccc(B(O)O)c(B(O)O)c1 [4b, benzene-1,2,4-triboronic]
AmpC producers; agent 4 mg/L
  ceftazidime MIC reduction, up to: ≤ 2 fold
AmpC producers; agent 8 mg/L
  ceftazidime MIC reduction, up to: up to 4 fold
AmpC producers; agent 16 mg/L
  ceftazidime MIC reduction, up to: ≤ 8 fold

## OB(O)c1ccccc1S [7c, 2-mercaptophenylboronic acid]
Gram-positive strains; all tested coccis
  MIC: 12.5 to 25 µg/mL (≈ 81.2 to 162 µM)
yeasts
  MFC: 25 to 200 µg/mL (≈ 162 to 1300 µM)

## OB(O)c1cccc(F)c1B(O)O [3b]
AmpC producers; agent 4 mg/L
  ceftazidime MIC reduction, up to: ≤ 2 fold
AmpC producers; agent 8 mg/L
  ceftazidime MIC reduction, up to: up to 4 fold
AmpC producers; agent 16 mg/L
  ceftazidime MIC reduction, up to: ≤ 8 fold

## OB(O)c1cc(C(F)(F)F)cc(B(O)O)c1F [2e]
Gram-negative rods
  reduction of MIC in the presence of PAβN: 4–16 fold
Gram-positive strains; enterococci
  MIC: 50 to 100 µg/mL (≈ 199 to 397 µM)
Gram-positive strains; staphylococci
  MIC: 0.78 to 12.5 µg/mL (≈ 3.1 to 49.7 µM)

## OB(O)c1ccc(C(F)(F)F)cc1B(O)O [3e]
Gram-negative rods
  reduction of MIC in the presence of PAβN: 4–16 fold
yeasts; most Candida spp.
  MIC: 3.12 to 6.25 µg/mL (≈ 13.3 to 26.7 µM)
yeasts
  MFC: 400 µg/mL (≈ 1710 µM)

## OB(O)c1ccc(B(O)O)c(F)c1F [1c]
Gram-positive strains; enterococci
  MIC: 100 to 400 µg/mL (≈ 496 to 1980 µM)
Gram-positive strains; staphylococci
  MIC: 12.5 to 50 µg/mL (≈ 62 to 248 µM)

## O=Cc1cc(F)ccc1B(O)O [7b]
Gram-negative rods
  reduction of MIC in the presence of PAβN: 4–16 fold
Gram-positive strains; enterococci
  MIC: 100 to 400 µg/mL (≈ 595 to 2380 µM)
Gram-positive strains; staphylococci
  MIC: 12.5 to 50 µg/mL (≈ 74.4 to 298 µM)

— PMC10648349, “Aromatic Diboronic Acids as Effective KPC/AmpC Inhibitors” (Molecules, 2023)
